How the values were obtained:
[1] = target: T1, BceN (GDP-D-mannose 4,6-dehydratase) (Burkholderia cenocepacia, UniProt B4EFL2); test: 1H NMR enzyme kinetics with purified protein (substrate turnover and substrate inhibition), […]°C, pH […]; type: biochemical
T1 construct: gene gca; full-length, C-terminally 6×His-tagged BceN, tetramer

[2] = target: 6×His-tagged BceN protein of Burkholderia cenocepacia J2315 (GDP-D-mannose 4,6-dehydratase) (Burkholderia cenocepacia J2315); test: native gel or EMSA; discontinuous native PAGE, 8% polyacrylamide, 200 mM Tris-Cl pH 8.8, 4°C, 100 V, 2 h; 6 µg purified 6×His-tagged BceN; aliquot with GMD activity; mass standards catalase, aldolase, BSA, ovalbumin

stoichiometry N [2]	Molecule	Ki [1] [µM]
–	Nc1nc2c(ncn2[C@@H]2O[C@H](COP(=O)(O)OP(=O)(O)O[C@H]3O[C@H](CO)[C@@H](O)[C@H](O)[C@@H]3O)[C@@H](O)[C@H]2O)c(=O)[nH]1 [A, GDP-D-mannose]	2910 ± 350
4	6×His-tagged BceN protein of Burkholderia cenocepacia J2315 (GDP-D-mannose 4,6-dehydratase) (enzyme)	–

Source: article PMC3584063, “Biochemical and Functional Studies on the Burkholderia cepacia Complex bceN Gene, Encoding a GDP-D-Mannose 4,6-Dehydratase” (PLoS ONE, 2013)
